Laboratory results from US10392383B2, “3-(1H-benzo[d]imidazol-2-yl)-1H-pyrazolo[4,3-b]pyridines and therapeutic uses thereof” (Samumed, LLC, priority 2015, dated 2019).

Columns and labels:
Assay type in all cases: cell-based
[1] = system: primary human fibroblasts derived from IPF patients (LL29 cells) treated with TGF-β1; test: Inhibition of the fibrotic process: αSMA staining in TGF-β1-treated LL29 fibroblasts; conditions: Fibroblast; for inhibition at 10 µM: LL29 fibroblasts treated with TGF-β1, Table 4, read-out: percent inhibition at 10 μM (given in parentheses for EC50 >10 μM); for EC50: 96 h, LL29 fibroblasts treated with TGF-β1 (20 ng/mL), 4 days, Table 4
Method in brief: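 EC50 from triplicate-well dose-response fits of % αSMA-positive cells, normalized to TGF-β1-stimulated DMSO controls, with SYTOX-positive dead cells excluded. LL29 IPF fibroblasts received compound at 10 μM–1.87 nM (0.1% DMSO) plus 20 ng/mL TGF-β1 for 4 days in 1% FBS medium; above 10 μM, % inhibition at 10 μM reported.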

SW480 colon cancer cells = test: Cell viability assay (CellTiter-Blue) in SW480 cells; conditions: Homo sapiens, 96 h, four days; for EC50: CellTiter-Blue, 10 μM to 0.0045 μM
Method in brief: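 Four-day viability readout in SW480 cells: compound at 0.0045–10 μM (1:3 series), DMSO controls in eight replicates, CellTiter-Blue fluorescence after ~3 h. Values are regression-derived EC50s, or percent inhibition at 10 μM when EC50 exceeds 10 μM.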

IL-6 (THP-1 cells) = test: IL-6 inhibition in LPS-stimulated THP-1 monocytes (HTRF); conditions: Homo sapiens, IL-6 HTRF; for EC50: 500 ng/mL LPS, Table 6; for inhibition at 10 µM: LPS, Table 6, read-out: percent inhibition at 10 μM (given in parentheses for EC50 >10 μM)
Method in brief: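 THP-1 cells in 1% FBS pre-incubated 2 h with compound (10-point 1:3 series from 10 μM, 0.1% DMSO), then stimulated with 500 ng/mL LPS for 22 h at 37 °C. IL-6 measured by HTRF 665/620 ratio, normalized to DMSO; EC50 by four-parameter fit, or % inhibition at 10 μM when EC50 >10 μM.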

SMILES | inhibition at 10 µM [1] | EC50 [1] | EC50 (SW480 colon cancer cells) | EC50 (IL-6 (THP-1 cells)) | inhibition at 10 µM (IL-6 (THP-1 cells)) | inhibition at 10 µM (SW480 colon cancer cells; 10 μM, read-out: percent inhibition at 10 μM (given for EC50 of >10 μM))
c1cc(-c2ccc3c(c2)OCO3)c2nc(-c3n[nH]c4ccc(C5CCNCC5)nc34)[nH]c2c1 [Compound 1108, 3-(4-(Benzo[d][1,3]dioxol-5-yl)-1H-benzo[d]imidazol-2-yl)-5-(piperidin-4-yl)-1H-pyrazolo[4,3-b]pyridine] | 14.1% | > 10000 nM | 2.28 µM | > 10 µM | 4.6% | 
C1=C(c2ccc3[nH]nc(-c4nc5c(-c6ccc7c(c6)OCO7)cccc5[nH]4)c3n2)CCNC1 [Compound 1109, 3-(4-(Benzo[d][1,3]dioxol-5-yl)-1H-benzo[d]imidazol-2-yl)-5-(1,2,3,6-tetrahydropyridin-4-yl)-1H-pyrazolo[4,3-b]pyridine] |  | 1590 nM | 1.24 µM | 5.87 µM |  | 
O=C(Nc1cncc(-c2ccc3[nH]nc(-c4nc5c(-c6ccccc6F)cccc5[nH]4)c3n2)c1)C(F)(F)F [Compound 1126, 2,2,2-Trifluoro-N-(5-(3-(4-(2-fluorophenyl)-1H-benzo[d]imidazol-2-yl)-1H-pyrazolo[4,3-b]pyridin-5-yl)pyridin-3-yl)acetamide] |  | 2290 nM | 4.36 µM | 0.0518 µM |  | 
CN1CCN(c2cccc3[nH]c(-c4n[nH]c5ccc(-c6cncc(NC(=O)C(F)(F)F)c6)nc45)nc23)CC1 [Compound 1127, 2,2,2-Trifluoro-N-(5-(3-(4-(4-methylpiperazin-1-yl)-1H-benzo[d]imidazol-2-yl)-1H-pyrazolo[4,3-b]pyridin-5-yl)pyridin-3-yl)acetamide] |  | 8310 nM | 9.42 µM | 7.09 µM |  | 
Cn1cc(-c2ccc3[nH]nc(-c4nc5c(-c6ccc(F)cc6)cccc5[nH]4)c3n2)c(CO)n1 [Compound 1129, (4-(3-(4-(4-Fluorophenyl)-1H-benzo[d]imidazol-2-yl)-1H-pyrazolo[4,3-b]pyridin-5-yl)-1-methyl-1H-pyrazol-3-yl)methanol] |  | 1200 nM | 3.01 µM | 9.72 µM |  | 
Cn1cc(-c2ccc3[nH]nc(-c4nc5c(N6CCCCC6)cccc5[nH]4)c3n2)c(CO)n1 [Compound 1134, (1-Methyl-4-(3-(4-(piperidin-1-yl)-1H-benzo[d]imidazol-2-yl)-1H-pyrazolo [4,3-b]pyridin-5-yl)-1H-pyrazol-3-yl)methanol] | 0% | > 10000 nM | > 10 µM | > 10 µM | 28.3% | 18.2%
Cn1cc(-c2ccc3[nH]nc(-c4nc5c(-c6ccc7c(c6)OCO7)cccc5[nH]4)c3n2)c(CO)n1 [Compound 1152, (4-(3-(4-(Benzo[d][1,3]dioxol-5-yl)-1H-benzo[d]imidazol-2-yl)-1H-pyrazolo[4,3-b]pyridin-5-yl)-1-methyl-1H-pyrazol-3-yl)methanol] | 0% | > 10000 nM | 0.613 µM | > 10 µM | 23.3% | 
